According to patent US20230312587A1, “PTERIDINONE COMPOUNDS AND USES THEREOF” (Vertex Pharmaceutical Incorporated, priority 2018, published 2023):

system: β-catenin-TCF-mediated reporter transcription activity in Colo 205 cells; assay: Colo 205 reporter assay (TCF/LEF luciferase); type: cell-based; details: Colo 205 TCF/LEF luciferase reporter, five hours after addition of compound; read-out: TCF reporter Colo205 IC50
Description: The compounds of the invention described herein were screened using the assay procedure for β-catenin-TCF-mediated reporter transcription activity described below.
Reporter cell lines were generated by stably transfecting cells of cancer cell lines (e.g., colon cancer) with a plasmid reporter construct (From SABiosciences, a QIAGEN company) that includes TCF/LEF promoter driving expression of the firefly luciferase gene. TCF/LEF reporter constructs were made in which TCF/LEF promoter, a promoter with optimal number of TCF/LEF binding sites designed by SABiosceinces, was linked upstream of the firefly luciferase gene. This construct could also include a puromycin resistance gene as a selectable marker. This construct could also be used to stably transfect Colo 205 cells, a colon cancer cell line having a mutated APC gene that causes a constitutively active β-catenin. A control cell line was generated using another plasmid construct containing the luciferase gene under the control of a CMV basal promoter which is not activated by p-catenin.
Colo 205 Cultured cells with a stably transfected reporter construct were plated at approximately 10,000 cells per well into 384 well multi-well plates for twenty four hours. The testing compounds were then added to the wells in 2-fold serial dilutions using a twenty micromolar top concentration. A series of control wells for each cell type received only compound solvent. Five hours after the addition of compound, reporter activity for luciferase was assayed, by addition of the SteadyGlo luminescence reagent (Promega). The reporter luminescence activity was measured using Pherastar plate reader (BMG Labtech). Readings were normalized to DMSO only treated cells, and normalized activities were then used in the IC50 calculations. The Colo 205 reporter assay data are summarized in Table 45: A<0.3 μM; 0.3 μM≤B<1.0 μM; 1.0 μM≤C<5.0 μM; D≥5.0 μM
Colo 205 reporter assay data has also been obtained for certain R-isomers of Formula (I) wherein R^4 is —H or -D, and wherein the carbon to which R^3 and R^4 are attached (C2 carbon of Formula (X)) has R stereochemistry; such epimeric compounds are represented using the suffix “B” attached to the Compound described herein having the S stereochemistry at the carbon to which R^3 and R^4 are attached: […]

| IC50 [µM] | SMILES |
| --- | --- |
| 0.3 to 1 | CC[C@H]1C(=O)N(C)c2cnc(NCc3cnn(Cc4ccc(F)cc4)c3)nc2N1C(C)C [Compound 52, (7S)-7-ethyl-2-(((1-(4-fluorobenzyl)-1H-pyrazol-4-yl)methyl)amino)-8-isopropyl-5-methyl-7,8-dihydropteridin-6(5H)-one] |

same assay, conditions: Homo sapiens, COLO 205, 5 h, Colo 205 TCF/LEF luciferase reporter, five hours after addition of compound; read-out: TCF reporter Colo205 IC50

| IC50 [µM] | SMILES |
| --- | --- |
| 0.3 to 1 | Cc1nc(NCc2cnn(Cc3ccnc(N(C)C)c3)c2)nc2c1NC(=O)[C@H](C)N2C [Compound 12, (7S)-2-(((1-((2-(dimethylamino)pyridin-4-yl)methyl)-1H-pyrazol-4-yl)methyl)amino)-4,7,8-trimethyl-7,8-dihydropteridin-6(5H)-one] |
| ≥ 5 | O=C1Nc2cnc(NCc3cnn(CCc4ccc(F)cc4)c3)nc2N[C@H]1CCO [Compound 13, (7S)-2-(((1-(4-fluorophenethyl)-1H-pyrazol-4-yl)methyl)amino)-7-(2-hydroxyethyl)-7,8-dihydropteridin-6(5H)-one] |
| < 0.3 | Cc1nc(NCc2cnn(Cc3cc(F)c(F)cc3F)c2)nc2c1N(C)C(=O)[C@H](C)N2C [Compound 16, (7S)-4,5,7,8-tetramethyl-2-(((1-(2,4,5-trifluorobenzyl)-1H-pyrazol-4-yl)methyl)amino)-7,8-dihydropteridin-6(5H)-one] |
| < 0.3 | Cc1nc(NCc2cnn(Cc3ccc(F)c(F)c3F)c2)nc2c1N(C)C(=O)[C@H](C)N2C [Compound 17, (7S)-4,5,7,8-tetramethyl-2-(((1-(2,3,4-trifluorobenzyl)-1H-pyrazol-4-yl)methyl)amino)-7,8-dihydropteridin-6(5H)-one] |
| < 0.3 | Cc1nc(NCc2cnn(Cc3c(F)cc(F)cc3F)c2)nc2c1N(C)C(=O)[C@H](C)N2C [Compound 18, (7S)-4,5,7,8-tetramethyl-2-(((1-(2,4,6-trifluorobenzyl)-1H-pyrazol-4-yl)methyl)amino)-7,8-dihydropteridin-6(5H)-one] |
| 0.3 to 1 | CO[C@H](C)[C@H]1C(=O)N(C)c2cnc(NCc3cnn(Cc4ccc(F)cc4)c3)nc2N1C [Compound 20, (7S)-2-(((1-(4-fluorobenzyl)-1H-pyrazol-4-yl)methyl)amino)-7-((R)-1-methoxyethyl)-5,8-dimethyl-7,8-dihydropteridin-6(5H)-one] |
| < 0.3 | CO[C@H](C)[C@H]1C(=O)N(C)c2cnc(NCc3cnn(Cc4cc(F)c(F)c(F)c4)c3)nc2N1C [Compound 21, (7S)-7-((R)-1-methoxyethyl)-5,8-dimethyl-2-(((1-(3,4,5-trifluorobenzyl)-1H-pyrazol-4-yl)methyl)amino)-7,8-dihydropteridin-6(5H)-one] |
| < 0.3 | C#CC[C@H]1C(=O)N(C)c2cnc(NCc3cnn(Cc4cc(F)c(F)c(F)c4)c3)nc2N1C [Compound 25, (7S)-5,8-dimethyl-7-(prop-2-yn-1-yl)-2-(((1-(3,4,5-trifluorobenzyl)-1H-pyrazol-4-yl)methyl)amino)-7,8-dihydropteridin-6(5H)-one] |
| < 0.3 | C#CC[C@H]1C(=O)N(C)c2cnc(NCc3cnn(Cc4ccc(F)cc4)c3)nc2N1C [Compound 26, (7S)-2-(((1-(4-fluorobenzyl)-1H-pyrazol-4-yl)methyl)amino)-5,8-dimethyl-7-(prop-2-yn-1-yl)-7,8-dihydropteridin-6(5H)-one] |
| 0.3 to 1 | C[C@H]1C(=O)N(C)c2cnc(NCc3cnn(Cc4ccc(F)cc4)c3)nc2N1C [Compound 27, (7S)-2-(((1-(4-fluorobenzyl)-1H-pyrazol-4-yl)methyl)amino)-5,7,8-trimethyl-7,8-dihydropteridin-6(5H)-one] |
| < 0.3 | Cc1nc(NCc2cnn(Cc3ccc(F)c(F)c3)c2)nc2c1N(C)C(=O)[C@H](C)N2C [Compound 28, (7S)-2-(((1-(3,4-difluorobenzyl)-1H-pyrazol-4-yl)methyl)amino)-4,5,7,8-tetramethyl-7,8-dihydropteridin-6(5H)-one] |
| < 0.3 | Cc1nc(NCc2cnn(Cc3ccc(F)cc3F)c2)nc2c1N(C)C(=O)[C@H](C)N2C [Compound 29, (7S)-2-(((1-(2,4-difluorobenzyl)-1H-pyrazol-4-yl)methyl)amino)-4,5,7,8-tetramethyl-7,8-dihydropteridin-6(5H)-one] |
| < 0.3 | CCN1C(=O)[C@H](C)N(CC)c2nc(NCc3cnn(Cc4cc(F)c(F)c(F)c4)c3)ncc21 [Compound 31, (7S)-5,8-diethyl-7-methyl-2-(((1-(3,4,5-trifluorobenzyl)-1H-pyrazol-4-yl)methyl)amino)-7,8-dihydropteridin-6(5H)-one] |
| 0.3 to 1 | CC[C@H]1C(=O)N(C)c2cnc(NCc3cnn(Cc4cc(F)c(F)c(F)c4)c3)nc2N1CC(F)(F)F [Compound 33, (7S)-7-ethyl-5-methyl-2-(((1-(3,4,5-trifluorobenzyl)-1H-pyrazol-4-yl)methyl)amino)-8-(2,2,2-trifluoroethyl)-7,8-dihydropteridin-6(5H)-one] |
| < 0.3 | CCN1C(=O)[C@](C)(CC)N(CC)c2nc(NCc3cnn(Cc4cc(F)c(F)c(F)c4)c3)ncc21 [Compound 35, (7S)-5,7,8-triethyl-7-methyl-2-(((1-(3,4,5-trifluorobenzyl)-1H-pyrazol-4-yl)methyl)amino)-7,8-dihydropteridin-6(5H)-one] |
| < 0.3 | CC[C@H]1C(=O)N(C)c2cnc(NCc3cnn(Cc4cc(F)c(F)c(F)c4)c3)nc2N1C(C)C [Compound 36, (7S)-7-ethyl-8-isopropyl-5-methyl-2-(((1-(3,4,5-trifluorobenzyl)-1H-pyrazol-4-yl)methyl)amino)-7,8-dihydropteridin-6(5H)-one] |
| < 0.3 | CCN1C(=O)[C@H](CCO)N(CC)c2nc(NCc3cnn(Cc4cc(F)c(F)c(F)c4)c3)ncc21 [Compound 37, (7S)-5,8-diethyl-7-(2-hydroxyethyl)-2-(((1-(3,4,5-trifluorobenzyl)-1H-pyrazol-4-yl)methyl)amino)-7,8-dihydropteridin-6(5H)-one] |
| < 0.3 | CCN1C(=O)[C@H](CCO)N(CC)c2nc(NCc3cnn(Cc4ccc(F)cc4)c3)ncc21 [Compound 38, (7S)-5,8-diethyl-2-(((1-(4-fluorobenzyl)-1H-pyrazol-4-yl)methyl)amino)-7-(2-hydroxyethyl)-7,8-dihydropteridin-6(5H)-one] |
| 1 to 5 | Cc1nc(NCc2ccc(-c3ccc(F)cc3)o2)nc2c1NC(=O)[C@H](C)N2C [Compound 40, (7S)-2-(((5-(4-Fluorophenyl)furan-2-yl)methyl)amino)-4,7,8-trimethyl-7,8-dihydropteridin-6(5H)-one] |
| 0.3 to 1 | C[C@H]1C(=O)Nc2cnc(NCc3cnn(Cc4ccc(F)cc4)c3)nc2N1C [Compound 41, (7S)-2-(((1-(4-fluorobenzyl)-1H-pyrazol-4-yl)methyl)amino)-7,8-dimethyl-7,8-dihydropteridin-6(5H)-one] |
| ≥ 5 | C[C@H]1C(=O)Nc2cnc(NCc3ccc(-c4ccc(F)cc4)o3)nc2N1C [Compound 43, (7S)-2-(((5-(4-fluorophenyl)furan-2-yl)methyl)amino)-7,8-dimethyl-7,8-dihydropteridin-6(5H)-one] |
| < 0.3 | C[C@H]1C(=O)Nc2cnc(NCc3cnn(Cc4cccc(C(F)(F)F)c4)c3)nc2N1C [Compound 45, (7S)-7,8-dimethyl-2-(((1-(3-(trifluoromethyl)benzyl)-1H-pyrazol-4-yl)methyl)amino)-7,8-dihydropteridin-6(5H)-one] |
| < 0.3 | CCN1C(=O)[C@H](CCO)N(CC)c2nc(NCc3cnn(Cc4cccc(C(F)(F)F)c4)c3)ncc21 [Compound 49, (7S)-5,8-diethyl-7-(2-hydroxyethyl)-2-(((1-(3-(trifluoromethyl)benzyl)-1H-pyrazol-4-yl)methyl)amino)-7,8-dihydropteridin-6(5H)-one] |
| < 0.3 | Cc1nc(NCc2cnn(Cc3ccccc3)c2)nc2c1NC(=O)[C@H](C)N2C [Compound 53, (7S)-2-(((1-benzyl-1H-pyrazol-4-yl)methyl)amino)-4,7,8-trimethyl-7,8-dihydropteridin-6(5H)-one] |
| < 0.3 | Cc1nc(NCc2cnn(Cc3ccc(C#N)cc3)c2)nc2c1NC(=O)[C@H](C)N2C [Compound 55, (7S)-4-((4-(((4,7,8-trimethyl-6-oxo-5,6,7,8-tetrahydropteridin-2-yl)amino)methyl)-1H-pyrazol-1-yl)methyl)benzonitrile] |
| < 0.3 | C[C@H]1C(=O)Nc2cnc(NCc3ccc(Oc4ccc(F)cc4)nc3)nc2N1C [Compound 56, (7S)-2-(((6-(4-fluorophenoxy)pyridin-3-yl)methyl)amino)-7,8-dimethyl-7,8-dihydropteridin-6(5H)-one] |
| < 0.3 | Cc1nc(NCc2ccc(OCc3ccc(F)cc3)nc2)nc2c1NC(=O)[C@H](C)N2C [Compound 57, (7S)-2-(((6-((4-fluorobenzyl)oxy)pyridin-3-yl)methyl)amino)-4,7,8-trimethyl-7,8-dihydropteridin-6(5H)-one] |
